Test results taken from publication PMC6710349, “Action of Dicumarol on Glucosamine-1-Phosphate Acetyltransferase of GlmU and Mycobacterium tuberculosis” (Frontiers in Microbiology, 2019).

Target: GlmU (glucosamine-1-phosphate acetyltransferase / N-acetylglucosamine-1-phosphate uridyltransferase) (Mycobacterium tuberculosis, UniProt P9WMN3)
Assay: DTNB colorimetric acetyltransferase assay, with Lineweaver-Burk kinetics
Format: biochemical

Chain of GlmU (glucosamine-1-phosphate acetyltransferase / N-acetylglucosamine-1-phosphate uridyltransferase) (P9WMN3 2-495 limits assumed): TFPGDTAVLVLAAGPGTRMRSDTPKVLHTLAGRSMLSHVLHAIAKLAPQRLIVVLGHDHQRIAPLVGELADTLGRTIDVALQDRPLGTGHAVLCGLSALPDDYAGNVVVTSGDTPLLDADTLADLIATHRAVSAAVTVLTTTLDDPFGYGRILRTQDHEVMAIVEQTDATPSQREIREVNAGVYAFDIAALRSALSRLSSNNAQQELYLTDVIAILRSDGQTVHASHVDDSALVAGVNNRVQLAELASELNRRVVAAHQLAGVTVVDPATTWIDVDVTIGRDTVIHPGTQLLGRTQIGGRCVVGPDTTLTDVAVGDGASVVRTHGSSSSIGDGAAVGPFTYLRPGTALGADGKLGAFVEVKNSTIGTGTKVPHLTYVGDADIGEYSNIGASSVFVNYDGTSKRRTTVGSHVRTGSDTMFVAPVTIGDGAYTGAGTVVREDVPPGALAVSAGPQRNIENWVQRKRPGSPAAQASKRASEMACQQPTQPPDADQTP

## O=c1oc2ccccc2c(O)c1Cc1c(O)c2ccccc2oc1=O [compound 22, 3,3′-methylene-bis-4-hydroxycoumarin]
  IC50: 13.7 µM
